Results on 8 compounds are retold here after PubChem BioAssay (NCI).

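Where inhibition never reached the appropriate level, the endpoint shown equals the highest concentration tested. Otherwise, values were interpolated linearly from a five-concentration, 48-hour dose response in 96-well plates. GI50 = concentration required for 50% inhibition of growth. Definition used: TGI = concentration required for complete inhibition of growth.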

What all share (test): DTP human tumour cell line panel, 48 h
In experiment [1] the test system is 786-0 renal.
The test system of experiment [2] is COLO 205 colon.
In experiment [3] the test system is EKVX NSCLC.
Experiment [4] deals with HCT-15 colon.
Experiment [5] deals with HL-60(TB) leukemia.
In experiment [6] the test system is IGROV1 ovarian.
Experiment [7] has as its system KM12 colon.
Experiment [8] deals with MOLT-4 leukemia.
Experiment [9] concerns NCI/ADR-RES ovarian.
Experiment [10] concerns OVCAR-4 ovarian.
For experiment [11], the system named is SF-268 CNS.
Experiment [12] concerns SF-295 CNS.
Experiment [13] relates to SK-OV-3 ovarian.
The test system of experiment [14] is SW-620 colon.
Experiment [15] deals with T-47D breast.
In experiment [16] the test system is UO-31 renal.
The test system of experiment [17] is NCI-H460 lung.
Experiment [18] has as its system UACC-62 melanoma.
The subject of experiment [19] is NCI-H522 lung.

For `O=c1[nH]nc(-c2ccccc2)c2[nH]c(-c3ccccc3)cc12`, the total growth inhibition concentration (TGI) in experiment [1], in experiment [2], in experiment [3], in experiment [4], in [5] and in experiment [6] was above 100 µM in each case. The TGI in [7], in [8], in experiment [9], in experiment [10], in [11] and in experiment [12] was above 100 µM each time. Moreover, the TGI in experiment [13], in [14], in experiment [15] and in experiment [16] was above 100 µM throughout.

`CC1(C)OCC2OC3([C@H]4OC(C)(C)O[C@@H]4CO)OC(C)(C)OC3C2O1` (some centres undefined): the TGI in experiment [1], in experiment [2], in experiment [3], in experiment [4], in [6] and in experiment [7] was above 100 µM throughout. For the same compound, the TGI in experiment [8], in experiment [17], in experiment [9], in experiment [10], in experiment [12] and in experiment [14] was above 100 µM each time. Further, the TGI in experiment [15], in [18] and in experiment [16] was above 100 µM throughout.

In the case of `CC(=O)OC/C=C(/C=C/CNC1CCCCC1)OC(C)=O`, the total growth inhibition concentration (TGI) in experiment [1] was determined as 23.9 µM; in [2], 28.2 µM; in [3], 30.1 µM; in experiment [4], 37 µM; in experiment [6] it was 34.3 µM; in [7] it was 32.9 µM. Further, the concentration for total growth inhibition (TGI) in [8] was above 100 µM; in experiment [17], 52.1 µM; in experiment [19] it was 42.1 µM; in [9], 44.6 µM; in [10], 35.7 µM; in experiment [11], 35.5 µM. The TGI in [12] came out at 33.2 µM; in experiment [13], 33.8 µM; in [14], 29.8 µM; in experiment [15], 36.7 µM; in experiment [18], 33.2 µM.

Take `Cn1c([O-])nc(-n2cc[n+](C)c2)cc1=O`: the total growth inhibition concentration (TGI) in [1], in [2], in experiment [3], in experiment [4], in [5] and in experiment [6] was above 100 µM in each case. Moreover, the TGI in experiment [7], in experiment [8], in experiment [17], in experiment [9], in [10] and in experiment [11] was above 100 µM in each case. Besides, the TGI in [13], in experiment [14], in [15], in experiment [18] and in experiment [16] was above 100 µM throughout.

With `O=C(Cc1ccccc1)NN1C(=O)/C(=C\c2ccc([N+](=O)[O-])cc2)SC1=Nc1ccccc1`, the concentration for total growth inhibition (TGI) in [1], in [2], in experiment [3], in [4], in [6] and in experiment [7] was above 100 µM in each case. Also, the TGI in experiment [8], in experiment [17], in [9], in experiment [10], in experiment [11] and in experiment [12] was above 100 µM each time. The concentration for total growth inhibition (TGI) in experiment [13], in experiment [14], in [15], in [18] and in experiment [16] was above 100 µM each time.

`Nc1ccc2[nH]c(-c3cccc(Cl)c3)cc(=O)c2c1`: the TGI in experiment [1], in experiment [2], in experiment [3], in experiment [4], in experiment [6] and in experiment [7] was above 100 µM throughout. Further, the TGI in [8] was above 100 µM; in [17] it was above 100 µM; in [19], 6.87 µM; in experiment [9], 12.4 µM; in experiment [10], above 100 µM; in experiment [13], above 100 µM. Moreover, the total growth inhibition concentration (TGI) in [14], in experiment [15] and in [18] was above 100 µM in each case. The GI50 in experiment [10] was above 100 µM.

For `Brc1ccc2c(-c3csc(-c4c[nH]c5cc(Br)ccc45)n3)c[nH]c2c1`, the TGI in experiment [1] was above 67.3 µM; in [2], above 100 µM; in [3], above 100 µM; in experiment [4] it was above 89.9 µM; in experiment [5], above 100 µM; in experiment [6] it was above 75.2 µM. In addition, the TGI in experiment [7] was 25.1 µM; in experiment [8], above 62.8 µM; in experiment [17] it was 53.8 µM; in experiment [9] it was above 87 µM; in experiment [10], 97.7 µM; in experiment [11], above 100 µM. Further, the total growth inhibition concentration (TGI) in [12] is 45.5 µM; in [13] it was 97.4 µM; in experiment [14], 66.5 µM; in experiment [15] it was 98.7 µM; in experiment [18], above 100 µM; in experiment [16] it was above 100 µM.

With `CCC(=O)Oc1c2ccsc2c(OC(=O)CC)c2ccsc12`, the TGI in experiment [1] stood at 4.33 µM; in experiment [2], 10.6 µM; in experiment [3], 2.51 µM; in experiment [4] it was 1.07 µM; in experiment [6], 3.65 µM; in [7], 3.34 µM. Besides, the TGI in experiment [8] is above 100 µM; in experiment [17], 3.87 µM; in [19], 2.06 µM; in experiment [9], 0.832 µM; in [10], 2.39 µM; in experiment [11], 2.29 µM. The TGI was determined as 0.675 µM in [12]; 15.8 µM in [13]; 2.33 µM in [14]; 3.88 µM in [15]; 0.439 µM in experiment [18]; 1.45 µM in [16].
